Assay results from patent US20220031695A1, “SHP2 INHIBITOR COMPOSITIONS FOR USE IN TREATING CANCER” (Revolution Medicines, Inc., priority 2018, published 2022).

Assays:
SHP2 = target: T1, SHP2 (Homo sapiens, UniProt Q06124); test: SHP2 allosteric inhibition assay (DiFMUP prompt fluorescence); format: biochemical; conditions: 0.2 nM SHP2, 0.5 μM activating peptide, DiFMUP substrate
T1 sequence (Q06124 1-593): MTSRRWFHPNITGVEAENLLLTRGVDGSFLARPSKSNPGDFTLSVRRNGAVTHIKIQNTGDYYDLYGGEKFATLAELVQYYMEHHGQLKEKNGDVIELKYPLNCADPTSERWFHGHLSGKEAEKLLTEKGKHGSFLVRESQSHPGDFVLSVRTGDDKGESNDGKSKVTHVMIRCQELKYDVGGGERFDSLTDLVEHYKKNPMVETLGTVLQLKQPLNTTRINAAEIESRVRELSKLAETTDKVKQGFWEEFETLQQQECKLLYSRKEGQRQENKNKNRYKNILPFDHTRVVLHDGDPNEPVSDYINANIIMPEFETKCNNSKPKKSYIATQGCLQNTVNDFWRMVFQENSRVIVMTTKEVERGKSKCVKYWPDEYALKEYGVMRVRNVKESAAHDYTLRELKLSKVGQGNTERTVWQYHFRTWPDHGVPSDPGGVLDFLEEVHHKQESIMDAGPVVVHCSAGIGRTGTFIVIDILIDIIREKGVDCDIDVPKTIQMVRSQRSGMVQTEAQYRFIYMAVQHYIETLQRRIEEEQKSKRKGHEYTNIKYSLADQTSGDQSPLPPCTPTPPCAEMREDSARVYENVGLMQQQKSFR
Description: Without wishing to be bound by theory, SHP is allosterically activated through binding of bis-tyrosyl-phosphorylated peptides to its Src Homology 2 (SH2) domains. The latter activation step leads to the release of the auto-inhibitory interface of SHP2, which in turn renders the SHP2 protein tyrosine phosphatase (PTP) active and available for substrate recognition and reaction catalysis. The catalytic activity of SHP2 was monitored using the surrogate substrate DiFMUP in a prompt fluorescence assay format.
The phosphatase reactions were performed at room temperature in 96-well black polystyrene plate, flat bottom, non-binding surface (Corning, Cat #3650) using a final reaction volume of 100 μL and the following assay buffer conditions: 50 mM HEPES, pH 7.2, 100 mM NaCl, 0.5 mM EDTA, 0.05% P-20, 1 mM DTT.
The inhibition of SHP2 by RMC-3943, RMC-4550, and Compound C was monitored using an assay in which 0.2 nM of SHP2 was incubated with 0.5 μM of Activating Peptide 1 (sequence: H2N-LN(pY)IDLDLV(dPEG8)LST(pY)ASINFQK-amide) (SEQ ID NO: 1) or Activating Peptide 2 (sequence: H2N-LN(pY)AQLWHA(dPEG8)LTI(pY)ATIRRF-amide) (SEQ ID NO: 2). After 30-60 minutes incubation at 25° C., the surrogate substrate DiFMUP (Invitrogen, Cat #D6567) was added to the reaction and activity was determined by a kinetic read using a microplate reader (Envision, Perkin-Elmer or Spectramax M5, Molecular Devices). […]

[1] = system: ROS1 fusion-positive NSCLC; conditions: patients harboring ROS1 fusion-positive NSCLC; cited from earlier work

IC50 (SHP2) [nM]	SMILES	progression-free survival [1] [month]
2.19	Nc1nc(N2CCC3(CCC[C@H]3N)CC2)cnc1Sc1ccnc(Cl)c1Cl [RMC-3943]	–
–	C[C@@H](Oc1cc(-c2cnn(C3CCNCC3)c2)cnc1N)c1c(Cl)ccc(F)c1Cl [crizotinib]	19
